Activity calls are given as the source filed them. The rule behind the calls is not given here.
Key:
MCF7 = experiment: Cytotoxicity against human MCF7 cells assessed as reduction in cell viability after 48 hrs by MTT assay; format: functional, cell-based; conditions: MCF7, 48 h
A549 = experiment: Cytotoxicity against human A549 cells assessed as reduction in cell viability after 48 hrs by MTT assay; format: functional, cell-based; conditions: A549, 48 h
HeLa [1] = experiment: Cytotoxicity against human HeLa cells assessed as reduction in cell viability after 48 hrs by MTT assay; format: functional, cell-based
HeLa [2] = experiment: Cell cycle arrest in human HeLa cells assessed as accumulation at S phase at 5 uM after 24 hrs by propidium iodide staining based flow cytometry (reference value: 23.69%); format: functional
HeLa [3] = experiment: Cell cycle arrest in human HeLa cells assessed as accumulation at G2/M phase at 10 uM after 24 hrs by propidium iodide staining based flow cytometry (reference value: 9.89%); format: functional
HeLa [4] = experiment: Induction of apoptosis in human HeLa cells assessed as necrotic cells at 5 uM after 24 hrs by Annexin-V FITC/propidium iodide staining based flow cytometry (reference value: 1.81%); format: functional
HeLa [5] = experiment: Induction of apoptosis in human HeLa cells assessed as late apoptotic cells at 10 uM after 24 hrs by Annexin-V FITC/propidium iodide staining based flow cytometry (reference value: 0.29%); format: functional
HeLa [6] = experiment: Induction of apoptosis in human HeLa cells assessed as nuclear fragmentation after 24 hrs by acridine orange/ethidium bromide staining based fluorescence confocal microscopic method; format: functional, cell-based
HeLa [7] = experiment: Induction of apoptosis in human HeLa cells assessed as chromatin condensation after 24 hrs by acridine orange/ethidium bromide staining based fluorescence confocal microscopic method; format: functional, cell-based
HeLa [8] = experiment: Induction of apoptosis in human HeLa cells assessed as ring shaped cell masses at 5 to 10 uM after 24 hrs by […] staining based fluorescence microscopic method; format: functional
HeLa [9] = experiment: Induction of apoptosis in human HeLa cells assessed as late apoptotic cells at 5 uM after 24 hrs by Annexin-V FITC/propidium iodide staining based flow cytometry (reference value: 0.29%); format: functional
HeLa [10] = experiment: Induction of apoptosis in human HeLa cells assessed as live cells at 5 uM after 24 hrs by Annexin-V FITC/propidium iodide staining based flow cytometry (reference value: 95.5%); format: functional
HeLa [11] = experiment: Cell cycle arrest in human HeLa cells assessed as accumulation at G1 phase at 5 uM after 24 hrs by propidium iodide staining based flow cytometry (reference value: 66.42%); format: functional
HeLa [12] = experiment: Cell cycle arrest in human HeLa cells assessed as accumulation at S phase after 24 hrs by propidium iodide staining based flow cytometry; format: functional
HeLa [13] = experiment: Induction of apoptosis in human HeLa cells assessed as early apoptotic cells at 10 uM after 24 hrs by Annexin-V FITC/propidium iodide staining based flow cytometry (reference value: 2.36%); format: functional
HeLa [14] = experiment: Induction of apoptosis in human HeLa cells assessed as early apoptotic cells at 5 uM after 24 hrs by Annexin-V FITC/propidium iodide staining based flow cytometry (reference value: 2.36%); format: functional
HeLa [15] = experiment: Induction of apoptosis in human HeLa cells after 24 hrs by Annexin-V FITC/propidium iodide staining based flow cytometry; format: functional, cell-based
HeLa [16] = experiment: Induction of apoptosis in human HeLa cells assessed as necrotic cells at 10 uM after 24 hrs by Annexin-V FITC/propidium iodide staining based flow cytometry (reference value: 1.81%); format: functional
HeLa [17] = experiment: Induction of apoptosis in human HeLa cells assessed as live cells at 10 uM after 24 hrs by Annexin-V FITC/propidium iodide staining based flow cytometry (reference value: 95.5%); format: functional
HeLa [18] = experiment: Cell cycle arrest in human HeLa cells assessed as accumulation at S phase at 10 uM after 24 hrs by propidium iodide staining based flow cytometry (reference value: 23.69%); format: functional
HeLa [19] = experiment: Induction of apoptosis in human HeLa cells assessed as crescent shaped cell masses at 5 to 10 uM after 24 hrs by […] staining based fluorescence microscopic method; format: functional
HeLa [20] = experiment: Cell cycle arrest in human HeLa cells assessed as accumulation at G1 phase at 10 uM after 24 hrs by propidium iodide staining based flow cytometry (reference value: 66.42%); format: functional
HeLa [21] = experiment: Cell cycle arrest in human HeLa cells assessed as accumulation at G2/M phase at 5 uM after 24 hrs by propidium iodide staining based flow cytometry (reference value: 9.89%); format: functional

| Compound | IC50 (MCF7) [µM] | IC50 (A549) [µM] | IC50 (HeLa [1]) [µM] | also measured |
| --- | --- | --- | --- | --- |
| CC(C)(C)c1nc(Nc2ccccc2)sc1Cc1ccc2c(c1)OCO2 | 11.6 | 20.4 | 12 |  |
| CC(C)(C)c1nc(Nc2ccc(Cl)c(Cl)c2)sc1Cc1ccc2c(c1)OCO2 | 11.2 | 11.5 | 7.83 |  |
| O=c1[nH]cc(F)c(=O)[nH]1 [FLUOROURACIL] | 79.3 | 26 | 56.5 |  |
| CC(C)(C)c1nc(Nc2c(Br)cc(OC(F)(F)F)cc2Br)sc1Cc1ccc2c(c1)OCO2 | 103 | 103 | 53.3 |  |
| CC(C)(C)c1nc(Nc2ccc([N+](=O)[O-])cc2F)sc1Cc1ccc2c(c1)OCO2 | 33.3 | 67.2 | 19.3 |  |
| CC(C)(C)c1nc(Nc2ccccc2[N+](=O)[O-])sc1Cc1ccc2c(c1)OCO2 | > 200 | 82.8 | 194 |  |
| CC(C)(C)c1nc(Nc2cccc(C(F)(F)F)c2)sc1Cc1ccc2c(c1)OCO2 | 3.32 | 15.8 | 13 |  |
| CC(C)(C)c1nc(Nc2ccc(Br)cc2)sc1Cc1ccc2c(c1)OCO2 | 4.71 | 10.1 | 13.3 |  |
| CC(C)(C)c1nc(Nc2ccc(F)c(Cl)c2)sc1Cc1ccc2c(c1)OCO2 | 8.66 | 16.3 | 4.6 | Activity (HeLa [2]): 28.69%; Activity (HeLa [3]): 9.56%; Activity (HeLa [4]): 0.61%; Activity (HeLa [5]): 4.39%; Activity (HeLa [6]): Dose-dependent effect; Activity (HeLa [7]): Dose-dependent effect; Activity (HeLa [8]): Active; Activity (HeLa [9]): 1.58%; Activity (HeLa [10]): 86.1%; Activity (HeLa [11]): 60.8%; Activity (HeLa [12]): Dose-dependent effect; Activity (HeLa [13]): 19.5%; Activity (HeLa [14]): 11.7%; Activity (HeLa [15]): Dose-dependent effect; Activity (HeLa [16]): 0.94%; Activity (HeLa [17]): 75.2%; Activity (HeLa [18]): 36.63%; Activity (HeLa [19]): Active; Activity (HeLa [20]): 53.81%; Activity (HeLa [21]): 10.51% |
| Cc1ccccc1Nc1nc(C(C)(C)C)c(Cc2ccc3c(c2)OCO3)s1 | 19.1 | 18.7 | 24.8 |  |
| CC(C)(C)c1nc(Nc2ccccc2Cl)sc1Cc1ccc2c(c1)OCO2 | 8.99 | 6.84 | 18.9 |  |
| COc1ccc(Nc2nc(C(C)(C)C)c(Cc3ccc4c(c3)OCO4)s2)cc1 | 9.36 | 10.1 | 11.7 |  |
| Cc1cccc(C)c1Nc1nc(C(C)(C)C)c(Cc2ccc3c(c2)OCO3)s1 | 20.1 | 15.9 | 83.5 |  |
| Cc1cccc(Nc2nc(C(C)(C)C)c(Cc3ccc4c(c3)OCO4)s2)c1 | 4.91 | 12.7 | 18.8 |  |
| CC(C)(C)c1nc(Nc2cccc(Cl)c2)sc1Cc1ccc2c(c1)OCO2 | 3 | 2.06 | 8.27 |  |
| CC(C)(C)c1nc(Nc2cccc3ccccc23)sc1Cc1ccc2c(c1)OCO2 | 22.3 | 55.2 | 14.1 |  |
| Cc1ccc(Nc2nc(C(C)(C)C)c(Cc3ccc4c(c3)OCO4)s2)c(C)c1 | 18.7 | 11.3 | 18.9 |  |

| Compound | IC50 (MCF7) [µM] | IC50 (A549) [µM] | IC50 (HeLa [1]) [µM] | also measured |
| --- | --- | --- | --- | --- |
| CC(C)(C)c1nc(Nc2ccccc2F)sc1Cc1ccc2c(c1)OCO2 | 4.49 | 7.57 | 18.3 |  |
| CC(C)(C)c1nc(Nc2ccc(F)cc2)sc1Cc1ccc2c(c1)OCO2 | 15 | 5.81 | 25.3 |  |
| CC(C)(C)c1nc(Nc2cccc(Br)c2)sc1Cc1ccc2c(c1)OCO2 | 4.66 | 5 | 6.43 |  |
| CC(C)(C)c1nc(Nc2ccccc2Br)sc1Cc1ccc2c(c1)OCO2 | 39.9 | 26.1 | 52 |  |
| CC(C)(C)c1nc(Nc2ccc([N+](=O)[O-])cc2Cl)sc1Cc1ccc2c(c1)OCO2 | 76.5 | 80.9 | 51.7 |  |
| Cc1ccc2cccc(Nc3nc(C(C)(C)C)c(Cc4ccc5c(c4)OCO5)s3)c2n1 | > 200 | 55.5 | 65.1 |  |
| CC(C)(C)c1nc(Nc2cc(C(F)(F)F)cc(C(F)(F)F)c2)sc1Cc1ccc2c(c1)OCO2 | 9.03 | 3.52 | 2.07 | Activity (HeLa [2]): 27.1%; Activity (HeLa [3]): 17.93%; Activity (HeLa [4]): 0.69%; Activity (HeLa [5]): 1.94%; Activity (HeLa [6]): Dose-dependent effect; Activity (HeLa [7]): Dose-dependent effect; Activity (HeLa [8]): Active; Activity (HeLa [9]): 2.27%; Activity (HeLa [10]): 77.8%; Activity (HeLa [11]): 56.87%; Activity (HeLa [12]): Dose-dependent effect; Activity (HeLa [13]): 62.7%; Activity (HeLa [14]): 19.2%; Activity (HeLa [15]): Dose-dependent effect; Activity (HeLa [16]): 0.23%; Activity (HeLa [17]): 35.1%; Activity (HeLa [18]): 35.93%; Activity (HeLa [19]): Active; Activity (HeLa [20]): 46.14%; Activity (HeLa [21]): 16.03% |
| CC(=O)O[C@H]1C(=O)[C@@]2(C)[C@H]([C@H](OC(=O)c3ccccc3)[C@]3(O)C[C@H](OC(=O)[C@H](O)[C@@H](NC(=O)c4ccccc4)c4ccccc4)C(C)=C1C3(C)C)[C@]1(OC(C)=O)CO[C@@H]1C[C@@H]2O [PACLITAXEL] | 14 | 21 | 19.3 |  |
| CCOC(=O)c1ccc(Nc2nc(C(C)(C)C)c(Cc3ccc4c(c3)OCO4)s2)cc1 | 5.95 | 8.51 | 47.5 |  |
| CC(C)(C)c1nc(Nc2cccc(Cl)c2Cl)sc1Cc1ccc2c(c1)OCO2 | 19.4 | 14.2 | 34.6 |  |
| CC(C)(C)c1nc(Nc2ccccn2)sc1Cc1ccc2c(c1)OCO2 | 4.71 | 5.13 | 4.79 |  |
| CC(C)(C)c1nc(Nc2cc(Cl)cc(Cl)c2)sc1Cc1ccc2c(c1)OCO2 | 17.7 | 17 | 5.8 |  |
| CC(C)(C)c1nc(Nc2ccc(C(F)(F)F)cc2)sc1Cc1ccc2c(c1)OCO2 | 3.54 | 9.22 | 10.4 |  |
| CC(C)(C)c1nc(Nc2ccc([N+](=O)[O-])cc2)sc1Cc1ccc2c(c1)OCO2 | 2.55 | 8.26 | 4.15 |  |
| Cc1ccc(Nc2nc(C(C)(C)C)c(Cc3ccc4c(c3)OCO4)s2)cc1C | 20.4 | 12.2 | 20.7 |  |
| CC(C)(C)c1nc(Nc2ccc(Cl)cc2)sc1Cc1ccc2c(c1)OCO2 | 3.48 | 9.19 | 11 |  |
